In patent US20110060037A1, “USE OF NPY Y5 RECEPTOR ANTAGONISTS FOR THE PREVENTION OF PSYCHO-STIMULANT AND OPIOID ABUSE” (priority 2008, published 2011):
“Also recorded” adds a separate entry of the source.

Assays:
C57Bl/6 mice = assay: Cocaine-induced conditioned place preference (CPP); format: in vivo
Text: The CPP apparatus consisted of eight parallel set-ups, each consisting of two separate compartments measuring 19×19×19 cm. The walls extended upwards with clear Plexiglas plates to a total height of 43 cm, having the function of preventing the mice from jumping out, and at the same time allowing light to enter. The two compartments differed in visual as well as tactile cues. In one compartment, the walls and floor were painted white, and the floor was smooth, whereas in the other compartment, the walls were black, and the floor provided texture by insertion of a grey Lego plate. During habituation, post-conditioning test, extinction, and reinstatement, the mice were free to move between the two compartments through a square hole (3.5×3.5 cm). During conditioning, this opening was closed by insertion of a wooden plate. The movements of the animals were measured with the video-tracking program EthoVision (Noldus, Netherlands).
The CPP procedure consisted of the following consecutive phases: Habituation (2 days), conditioning (8 days), post-conditioning test (1 day), extinction (3 days), reinstatement test (1 day). Habituation (days 1-2): Each day the mice were placed into the white compartment of the CPP boxes with the door open and allowed to explore the compartments for 20 minutes to become habituated to the CPP apparatus. On the second day (i.e., the pre-conditioning test), the time spent in each of the two compartments (black or white) was recorded. This determined the preferred compartment of each mouse. No injections were given during these sessions.
Conditioning (days 3-10): Before eight daily 30 minutes conditioning sessions the animals received i.p. injections of either drug or isotonic saline, and the door between the two compartments was closed. Drug groups received drug injections on drug-days and were placed 2-5 min. later in their non-preferred compartment. On non drug-days, these animals received vehicle injections and were subsequently placed in their preferred compartment. All control animals received injections with vehicle each day and were placed in alternating compartments (black/white) on alternating days. […]
Post-conditioning test (day 11): The test was conducted on the day after the last conditioning session. Mice were allowed free access to both compartments for 20 minutes during which the amount of time spent in each compartment was recorded as described above for the pre-conditioning test. […]
Extinction and reinstatement: During an extinction period of three days the animals were exposed to the apparatus as during the post-conditioning test for 20 minutes each day with open doors and without prior injection. […] Subsequently, the time spent in the previously drug-paired (non-preferred) compartment was recorded for 20 min. […]

Y5 receptor = molecular target: T1, Y5 receptor (Mus musculus, UniProt O70342); conditions: cited from earlier work
T1 construct: close to 80% Y5 receptor occupancy in the mouse brain has also been observed between one and four hours after oral administration; host or cells: mouse brain (in vivo, after oral dosing)
T1 sequence (O70342 1-466): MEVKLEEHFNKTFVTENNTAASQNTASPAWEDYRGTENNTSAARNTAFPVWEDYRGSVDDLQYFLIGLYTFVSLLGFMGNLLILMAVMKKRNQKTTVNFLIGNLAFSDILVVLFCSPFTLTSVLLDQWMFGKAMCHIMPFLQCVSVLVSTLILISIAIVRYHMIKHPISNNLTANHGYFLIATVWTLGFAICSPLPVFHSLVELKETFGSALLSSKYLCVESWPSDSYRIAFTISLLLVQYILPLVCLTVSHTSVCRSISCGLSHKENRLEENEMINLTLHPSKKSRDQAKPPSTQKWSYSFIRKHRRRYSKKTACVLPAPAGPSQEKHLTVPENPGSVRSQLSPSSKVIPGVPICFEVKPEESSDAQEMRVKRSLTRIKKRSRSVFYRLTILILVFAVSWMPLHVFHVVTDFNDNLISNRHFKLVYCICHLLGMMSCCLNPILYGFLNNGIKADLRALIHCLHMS

rats = rats treated with L-152,804; cited from earlier work

In the case of `CC1(C)CC(=O)C(C2C3=C(CC(C)(C)CC3=O)Oc3ccccc32)C(=O)C1` [L-152,804, 5,5-Dimethyl-2-(2,3,4,9-tetrahydro-3,3-dimethyl-1oxo-1H-xanthen-9-yl)-1,3-cyclohexanedione], the “induction of cocaine place preference (post-conditioning vs. pre-conditioning test)” value (C57Bl/6 mice; L-152,804 3, 10, 30 mg/kg p.o. two hours prior to cocaine 10 mg/kg i.p. conditioning, FIG. 5A) is reported as “did not attenuate; also recorded: caused significant place preference similar to that observed without the Y5-antagonist”, the “reinstatement of cocaine-induced place preference vs. own pre-conditioning test” value (C57Bl/6 mice; L-152,804 3, 10, 30 mg/kg p.o., cocaine priming 5 mg/kg, FIG. 5A) is reported as “absent; also recorded: prevented significant reinstatement” and the “reinstatement as percent of the vehicle p.o./saline i.p. group” value (C57Bl/6 mice; L-152,804 3, 10, 30 mg/kg p.o., cocaine priming 5 mg/kg, FIG. 5B) is reported as “dose-dependently attenuated; also recorded: only the highest dose of L-152,804 (30 mg/kg) blocked reinstatement”. For the same molecule, the “extinction of cocaine place preference” value (C57Bl/6 mice; L-152,804 3, 10, 30 mg/kg p.o., three extinction days, vehicle/cocaine group reached full extinction on day 3) was “significantly faster; also recorded: full extinction already on the first extinction day”, the “Y5 receptor occupancy in mouse brain” value (Y5 receptor; 2 h after oral administration of L-152,804) was 80% and the “Y5 receptor occupancy in the mouse brain” value (Y5 receptor; between one and four hours after oral administration of L-152,804) was ~80%. For the same molecule, the distance travelled (rats) was “no change in distance travelled”.
